Results: patent US20250000885A1, “COMPOSITION COMPRISING TWO OR MORE OLIGOSACCHARIDES” (Children's Hospital Los Angeles, priority 2022, published 2025)

Legend:
[1] = test system: infant regional cerebral blood flow (rCBF); test: Arterial Spin Labeling (rCBF) of newborn brain vs HMO concentration in mother's milk at 1-month, voxel-wise multiple linear regression; type: in vivo, human; conditions: for association of exposure with rCBF: milk concentration at 1-month, total sample N=20, FDR-corrected; for B, association of exposure with rCBF: white matter
Text: (§1) Twenty mother-infant pairs were recruited from maternity clinics in Los Angeles County as part of a larger cohort study, and inclusion criteria has been previously described. Briefly, mothers were included if they were ≥18 years old at delivery, had given birth to a full-term singleton newborn, were breastfeeding, and were enrolled within 1 month from delivery. […] The Institutional Review Board of Children's Hospital Los Angeles approved all procedures. Participants provided written informed consent prior to data collection.
(§2) Mother-infant pairs were assessed at 1-month postpartum. Historical health-related information was collected. Mothers pumped a full expression of breast milk that was analyzed for individual HMO concentrations. Infants underwent magnetic resonance imaging (MRI) scanning at approximately 1-month postpartum to assess brain tissue microstructure and regional cerebral blood flow (rCBF).
(§3) Breast milk was collected and analyzed following standard procedures. Mothers were asked to avoid eating and drinking for 1-hour and feeding or pumping breast milk for 1.5-hours before collection. Mothers were encouraged to pump the entire contents of a single breast expression to ensure collection of fore, mid, and hind milk to standardize milk collection as much as possible. Aliquots were stored at −80° C. until HMO characterization at the University of California San Diego. Raffinose was added to each sample as an internal standard for absolute quantification. HMOs were isolated with high-throughput solid-phase extraction, fluorescently labeled, and measured using HPLC. Nineteen HMOs were quantified based on standard retention times and mass spectrometric analysis, which accounted for >90% of total HMO composition. The initial focus, however, was on the most abundant fucosylated and sialylated HMOs reported to influence brain development in animals and infants: 2′FL, 3FL, 3′SL, and 6′SL. Secretor status was defined by the presence or near absence of HMOs 2′FL or lacto-N-fucopentaose I.
(§4) MRI data were collected on a 3 Tesla Philips Achieva MRI scanner equipped with a 32-channel receive-only head coil. All data were acquired without sedation or contrast agent. Mothers and staff lulled infants to sleep with feeding and swaddling. Scans were visually monitored and repeated for any visible motion. Detailed image quality was assessed during preprocessing within 48 hours of scan acquisition.
Arterial Spin Labeling (ASL), which quantifies rCBF, a surrogate measure of cellular metabolism: The rCBF brain images and the Mo_wM image to the first rCBF image for each participant were aligned in native imaging space to correct for head motion. Images with >0.5 mm inter-frame motion were excluded from further processing. […] An in-house software was used to construct for each infant a voxel-wise map of rCBF from the ASL time series and Mo_wm image: 1) pair-wise subtracted the control images from the labeled images; 2) Perfusion-weighted images were calculated by pair-wise subtraction of the control and labeled images, followed by averaging across the imaging time series. The perfusion map (rCBF) was calculated using a single compartment model. A linear transformation with 6 degrees of freedom was used to coregister the quantitative rCBF maps for each infant to their T1-weighted anatomical images, which were in turn used as an intermediary source to coregister the rCBF images for each infant to the final brain template. […]

piglets = conditions: cited from earlier work; for learning and memory tasks compared to controls: piglets fed the substance; for cognitive performance: piglets, feeding
[2] = test system: infant brain tissue microstructure; test: Diffusion Tensor Imaging (FA, MD) of newborn brain vs HMO concentration in mother's milk at 1-month, voxel-wise multiple linear regression; type: in vivo, human; conditions: for association of exposure with FA values / association of exposure with MD values: milk concentration at 1-month, total sample N=20, FDR-corrected
Text: as §1, §2, §3, §4
Diffusion Tensor Imaging (DTI), which measures the diffusion of water as influenced by characteristics of brain tissue microstructure: The template brain was selected using a 2-step procedure to find the brain that was morphologically representative of all brains in our sample, as described in FIG. 1. Quality assurance procedures were instituted to exclude datasets with excessive motion. The diffusion tensor (D) was estimated at each voxel of the pre-processed DTI data in DSI Studio (RRID:SCR_009557) and computed the scalar indices fractional anisotropy (FA), mean diffusivity (MD), axial diffusivity (AD), and radial diffusivity (RD). These maps were edited to remove nonbrain tissue and then were threshed to remove background noise. Edited MD map was used to mask out nonbrain tissue in the FA, AD, and RD maps. The edited maps for each infant were coregistered using a rigid body transformation (3 translations and 3 rotations) to the infant's T1-weighted (T1w) anatomical image, which were in turn used as an intermediary source to coregister the maps for each infant to the final template brain. The FA, AD, MD, and RD maps were then smoothed using a Gaussian kernel with FWHM=4 mm.
Descriptive statistics are presented as mean±standard deviation (SD) for continuous variables and as frequency (percentage) for categorical variables. Normal distribution and homogeneity of variances were confirmed by Shapiro-Wilks W and Levene's tests. Values >3 SD from the mean were identified as outliers. […]

SMILES	association of exposure with rCBF [1]	learning and memory tasks compared to controls (piglets)	cognitive performance (piglets)	association of exposure with FA values [2]	association of exposure with MD values [2]	B, association of exposure with rCBF ([1]; CC)	B, association of exposure with rCBF ([1]; IC)	B, association of exposure with rCBF ([1]; aCR)	B, association of exposure with MD values ([2]; left posterior corona radiata, pCR)	B, association of exposure with FA values ([2]; right DLPFC)	B, association of exposure with FA values ([2]; right aCR)
CC(=O)N[C@H]1[C@H]([C@H](O)[C@H](O)CO)O[C@@](OC[C@H]2O[C@@H](O[C@H]3[C@H](O)[C@@H](O)[C@H](O)O[C@@H]3CO)[C@H](O)[C@@H](O)[C@H]2O)(C(=O)O)C[C@@H]1O [6′SL, 6′-sialyllactose, reference compound]	not significantly associated	performed better on learning and memory tasks	improved cognitive performance	not significantly associated	not significantly associated	–	–	–	–	–	–
CC(=O)N[C@H]1[C@H]([C@H](O)[C@H](O)CO)O[C@@](O[C@H]2[C@@H](O)[C@@H](CO)O[C@@H](O[C@H]3[C@H](O)[C@@H](O)C(O)O[C@@H]3CO)[C@@H]2O)(C(=O)O)C[C@@H]1O (stereo partly shown) [3′SL, 3′-sialyllactose]	increased rCBF	performed better on learning and memory tasks	improved cognitive performance	increased FA values	reduced MD values	0.06	0.04	0.07	−0.10	0.03	0.04
